{"source": "patent US20180243247A1", "about": "“DRUG COMBINATIONS FOR CEREBROVASCULAR DISEASE” (priority 2017, published 2018)", "origin": "cited, not measured here", "key": {"[1]": {"system": "rodent models of CNS ischemia"}}, "note": "Where two headings read alike, the source gives them in different places."}
{"compound": "NCCCNCCCCNCCC(=O)NCCCCCNC(=O)[C@H](CC(N)=O)NC(=O)Cc1ccc(O)cc1O", "note": "[JSTX-3]", "values": [{"measurement": "calcium influx through the AMPA receptor", "setting": "AMPA receptor", "result": "dramatically reduces calcium influx"}]}
{"compound": "C=CC[C@@H]1/C=C(\\C)C[C@H](C)C[C@H](OC)[C@H]2O[C@@](O)(C(=O)C(=O)N3CCCC[C@H]3C(=O)O[C@H](/C(C)=C/[C@@H]3CC[C@@H](O)[C@H](OC)C3)[C@H](C)[C@@H](O)CC1=O)[C@H](C)C[C@@H]2OC", "note": "[Tacrolimus]", "values": [{"measurement": "neuroprotection", "setting": "[1]; dose concentration of 0.1 mg/kg", "result": "neuroprotective"}, {"measurement": "neuroprotection", "setting": "[1]; lower doses than 0.1 mg/kg, monotherapy", "result": "not neuroprotective"}, {"measurement": "neuroprotective effects", "setting": "[1]; rodent models of CNS ischemia", "result": "exhibits neuroprotective effects"}]}
